{
  "source": "patent EP0189629A1",
  "about": "“Method of treatment of viral diseases in plants utilizing ribavirin” (VIRATEK, INC., priority 1985, dated 1986)",
  "key": {"TMV [1]": {"test_system": "TMV", "experiment": "TMV multiplication in leaf cells, treatment soon after inoculation", "format": "cell-based", "details": "treatment began soon after inoculation"}, "TMV [2]": {"test_system": "TMV", "experiment": "TMV multiplication in inoculated unorganized callus cells", "format": "cell-based", "details": "callus cells inoculated with TMV, single agent"}, "TMV [3]": {"test_system": "TMV", "experiment": "TMV-infected tobacco callus growth and shoot regeneration on medium containing chemical", "format": "cell-based"}, "[4]": {"test_system": "lily symptomless virus (LSV) and tulip breaking virus (TBV)", "experiment": "Lily meristem culture, virus testing by ELISA, immuno-diffusion drop test and electron microscopy", "format": "cell-based", "details": "40.0 uM Ribavirin", "procedure": "Other experiments were performed with Lilium Lon- oifiorum \"Arai\" which has been described as difficult to obtain free of virus, and with Lilium\"Enchantment\", both containing lily symptomless virus (LSV) and tulip breaking virus (TBV). Meristems, induced on media with or without Ribavirin, were isolated and subsequently cultured on a medium without Ribavirin. […] Leaf samples of the plants were tested for the presence of LSV and TBV by means of ELISA, the immuno-diffusion drop test and electron microscopy."}, "Lilium": {"test_system": "Lilium", "experiment": "Lily meristem culture, meristem formation and bulb growth", "format": "cell-based"}, "[5]": {"test_system": "orchid strain of tobacco mosaic virus (TMV-0)", "experiment": "Cymbidium orchid tissue culture, virus titers by electron micrography and serological test", "format": "cell-based", "details": "30, 100, 300 and 1,000 ppm Ribavirin; 200 ppm DMSO in all treatments", "procedure": "Ribavirin concentrations from 30 to 1,000 ppm have been included in tissue culture media in which orchids are being cloned, and used to drench and spray whole orchid plants in a controlled way. Virus titers were determined by transmission electron micrography and ELIZA serological tests. In order to enhance penetration of Ribavirin, 200 ppm of Dimethylsulfoxide - (DMSO) was included in all treatments including controls."}, "[6]": {"test_system": "Odontoglossum ring spot virus (ORSV)", "experiment": "ORSV-infected Cymbidium meristem/protocorm culture, ELISA", "format": "cell-based", "procedure": "Odontoglossum ring spot virus (ORSV) - infected Cymbidium mother plants have been regenerated in the presence of Ribavirin. Meristems or protocorms of Cymbidium were cultured on liquid or solid (0.7% agar) KNUDSON C medium, as modified for orchids by MOREL.\n(§1) Although the proportion of healthy plants obtained by this technique is usually high, it requires complex media and the rate of regrowth of meristematic explants is low. Menstems were cultured on MURASHIGE and SKOOG medium- supplanted with vitamin 85, and with growth substances. Other explants (shoots, fragment of shoots, stem--fragments) were grown on MURASHIGE and SKOOG medium without addition of growth substances. The presence of potato virus Y in plant material was controlled before and after in vitro culture, by biological indexing on tobacco test plants, or by serology (ELISA). Results thus obtained confirmed the elimination of potato virus Y from infected plants by meristem culture. […] Cymbidium protocorms infected with odontoglossum ring spot virus were placed for proliferation on liquid KNUDSON C medium containing 0, 10, 25 or 40 ppm of Ribavirin."}, "[7]": {"test_system": "protocorms of healthy Cymbidium", "experiment": "Growth of healthy Cymbidium protocorms on medium containing Ribavirin", "format": "cell-based", "procedure": "Meristems or protocorms of Cymbidium were cultured on liquid or solid (0.7% agar) KNUDSON C medium, as modified for orchids by MOREL."}, "potato virus Y": {"test_system": "potato virus Y", "experiment": "In vitro culture of meristems and other explants of potato virus Y-infected potato", "format": "cell-based", "procedure": "as §1"}, "Solubility": {"experiment": "Solubility", "format": "physicochemical", "details": "for solubility in other solvents: alcohol (5-15% by volume) and water, DMF (5-25%) and water, DMSO (5-25%) and water, DMSO alone", "from_the_text": "Another potential use of Ribavirin is to eliminate viruses or maintain plant tissues in a virus-free state during routine propagation techniques that are presently being developed. One example is the use of encapsulated somatic embryos to propagate somatic tissues to prevent sexual variation or the need for more extensive plant breeding. Ribavirin may be especially useful in maintaining virus-free plants by its application to somatic embryos. Certain plants can be propagated asexually precluding genetic changes in progeny which might otherwise occur by sexual propagation from seed. Treatment of somatic embryos with Ribavirin prior to encapsulation will preserve plant progeny in a virus--free state. The compound could also be used in combination with newly developed plant genetic engineering procedures where the Ribavirin could be incorporated into normal propagation procedures. […] The compounds are also soluble in solutions of alcohol (5-15% by volume) and water, dimethylformamide (DMF) (5-25%) and water, dimethyl sulfoxide (DMSO) (5-25%) and water and dimethyl sulfoxide alone."}, "plant virus groups": {"test_system": "plant virus groups", "experiment": "Spectrum of activity against plant virus groups and plant viral diseases"}},
  "data": [
    {"smiles": "Nc1ncnc2c1ncn2[C@@H]1O[C@H](CO)[C@@H](O)[C@@H]1O", "note": "[Adenine Arabinoside]", "values": [
      {"measurement": "multiplication of TMV in leaf cells", "setting": "TMV [1]", "result": "effectively inhibited"},
      {"measurement": "multiplication of TMV in unorganized callus cells", "setting": "TMV [2]", "result": "neither inhibited"}
    ]},
    {"smiles": "NC(=O)c1ncn([C@@H]2O[C@H](CO)[C@@H](O)[C@H]2O)n1", "note": "[Ribavirin, 1-β-D-ribofuranosyl-1,2,4-triazole-3-carboxamide]", "values": [
      {"measurement": "TMV in newly developed tobacco callus or shoots", "setting": "TMV [3]; callus from TMV-infected pith tissue grown on medium with Ribavirin", "result": "still contained TMV"},
      {"measurement": "tobacco callus growth and differentiation", "setting": "TMV [3]; concentration twice that required to inhibit TMV multiplication in leaf disks", "result": "grew and differentiated"},
      {"measurement": "percentage of plants infected with LSV and/or TBV", "setting": "[4]; L. \"Enchantment\"", "result": "the effect is less clear"},
      {"measurement": "percentage of plants infected with LSV and/or TBV", "setting": "[4]; L. Lonaiflorum \"Arai\"", "result": "reduced"},
      {"measurement": "bulb growth", "setting": "Lilium; 400.0 uM", "result": "severely reduced"},
      {"measurement": "number of adventitiously formed meristems and average bulb weight", "setting": "Lilium; concentration range 0.0-40.0 uM", "result": "not significantly influenced"},
      {"measurement": "multiplication of TMV in leaf cells", "setting": "TMV [1]", "result": "effectively inhibited"},
      {"measurement": "multiplication of TMV in unorganized callus cells", "setting": "TMV [2]", "result": "neither inhibited"},
      {"measurement": "virus status of new growth of Cymbidium tissue cultures", "setting": "[5]", "result": "developed virus-free new growth"},
      {"measurement": "multiplication of ORSV in Cymbidium protocorms", "setting": "[6]; 10 ppm, liquid KNUDSON C medium, three monthly subcultures", "result": "did not inhibit"},
      {"measurement": "virus concentration in Cymbidium protocorms", "setting": "[6]; 25 ppm, liquid KNUDSON C medium, monthly subcultures", "result": "decreased progressively"},
      {"measurement": "ORSV detection by ELISA test", "setting": "[6]; from the sixth subculture, regeneration in the presence of Ribavirin", "result": "no longer detectible"},
      {"measurement": "growth of healthy Cymbidium protocorms", "setting": "[7]; 50 ppm, after four weeks of culture", "result": "became necrotic"},
      {"measurement": "growth of healthy Cymbidium protocorms", "setting": "[7]; media containing 0, 10 or 25 ppm", "result": "grew well"},
      {"measurement": "regeneration rate in meristem culture", "setting": "potato virus Y; 10, 25 and 50 ppm, meristems of potato virus Y-infected potato", "result": "enhanced the regeneration rate"},
      {"measurement": "number of virus-free plants obtained after in vitro culture", "setting": "potato virus Y; 25 or 50 ppm, shoots, shoot pieces and stem-fragments, three to four weeks", "result": "significantly enhanced"},
      {"measurement": "phytotoxicity in meristem culture", "setting": "potato virus Y; virus-inhibiting concentrations, meristem culture of potato virus Y-infected potato", "result": "phytotoxicity at virus-inhibiting concentrations"},
      {"measurement": "solubility in other solvents", "setting": "Solubility", "result": "also soluble"},
      {"measurement": "solubility in water", "setting": "Solubility", "result": "soluble in water"},
      {"measurement": "effectiveness against plant viral diseases", "setting": "plant virus groups; crops and viruses listed in the 2nd table and the 3rd table", "result": "effective"},
      {"measurement": "activity against plant virus groups", "setting": "plant virus groups; potexviruses, potyviruses, closteroviruses, tymoviruses, carlaviruses, cucumoviruses, ilarviruses, tombusviruses, tomato spotted wilt virus, alfalfa mosaic virus", "result": "active"},
      {"measurement": "sensitivity of plant virus groups to Ribavirin", "setting": "plant virus groups; tobamovirus and bromovirus groups", "result": "only slightly sensitive"}
    ]},
    {"smiles": "CCCC(=O)OC[C@H]1O[C@@H](n2cnc(C(N)=O)n2)[C@H](O)[C@@H]1O", "note": "[5'-butyryl]", "values": [
      {"measurement": "solubility in other solvents", "setting": "Solubility", "result": "also soluble"},
      {"measurement": "solubility in water", "setting": "Solubility", "result": "soluble in water"}
    ]},
    {"smiles": "CC(=O)OC[C@H]1O[C@@H](n2cnc(C(N)=O)n2)[C@H](OC(C)=O)[C@@H]1OC(C)=O", "note": "[2,3,5--triacetyl]", "values": [
      {"measurement": "solubility in other solvents", "setting": "Solubility", "result": "also soluble"},
      {"measurement": "solubility in water", "setting": "Solubility", "result": "soluble in water"}
    ]}
  ]
}
